The target of assay [1] is isolated recombinant JAK1 kinase domain (Homo sapiens (Human), UniProt P23458). Description: JAK1 enzyme assay (Caliper LabChip, peptide phosphorylation). The class given is biochemical. The settings on record: isolated recombinant JAK1 kinase domain, 25 μM ATP.
Assay [2] has as its system JAK1-dependent STAT6 phosphorylation downstream of IL-13 stimulation in TF-1 human erythroleukemia cells. Briefly: JAK1 pathway assay in TF-1 cells (IL-13-pSTAT6, MSD). Format: cell-based. The settings on record: read-out: IL13-pSTAT6 EC50_TF-1. Put shortly:
(§1)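 BEAS-2B: 1 h, complete growth medium, 100,000 cells/well. TF-1: 30 min, serum-free OptiMEM after overnight GM-CSF starvation, 300,000 cells/well. EC50 reported.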

Assay [3] deals with isolated recombinant JAK2 kinase domain (Homo sapiens (Human), UniProt O60674). Briefly: JAK2 enzyme assay (Caliper LabChip, peptide phosphorylation). Format: biochemical. Conditions: 25 μM ATP.
Chain of isolated recombinant JAK2 kinase domain (O60674 849-1124): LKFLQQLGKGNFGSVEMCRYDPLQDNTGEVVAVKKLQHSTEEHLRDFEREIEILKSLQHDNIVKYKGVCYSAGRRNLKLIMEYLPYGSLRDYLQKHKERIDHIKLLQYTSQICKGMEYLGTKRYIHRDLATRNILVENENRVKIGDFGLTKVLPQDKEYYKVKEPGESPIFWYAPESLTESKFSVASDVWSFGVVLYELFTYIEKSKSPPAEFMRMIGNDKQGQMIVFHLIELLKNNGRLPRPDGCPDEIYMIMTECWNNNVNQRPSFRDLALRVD
Assay [4] deals with JAK1-dependent STAT6 phosphorylation downstream of IL-13 stimulation in BEAS-2B human bronchial epithelial cells. Description: JAK1 pathway assay in BEAS-2B cells (IL-13-pSTAT6, MSD). The class given is cell-based. Conditions: read-out: IL13-pSTAT6 EC50 (uM)_BEAS-2B. Put shortly:
as §1

Like-named read-outs stand apart in the source and are kept apart here.

Chain of isolated recombinant JAK1 kinase domain (P23458 875-1153): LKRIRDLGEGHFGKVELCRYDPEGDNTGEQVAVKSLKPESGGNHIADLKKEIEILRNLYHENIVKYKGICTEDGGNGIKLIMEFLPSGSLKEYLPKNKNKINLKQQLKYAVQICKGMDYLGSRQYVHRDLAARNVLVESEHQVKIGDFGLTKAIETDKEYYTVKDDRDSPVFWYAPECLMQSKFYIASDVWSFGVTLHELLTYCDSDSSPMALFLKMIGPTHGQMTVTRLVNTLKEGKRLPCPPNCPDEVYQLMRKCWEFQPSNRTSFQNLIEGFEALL

Consider `CC(C)CN1C[C@@H]2CN(C(=O)Cn3cc(NC(=O)c4cnn5cccnc45)c(-c4cc(Cl)ccc4OC(F)F)n3)C[C@@H]2C1` [Example 28, N-[1-[2-[(3aS,6aR)-2-isobutyl-1,3,3a,4,6,6a-hexahydropyrrolo[3,4-c]pyrrol-5-yl]-2-oxo-ethyl]-3-[5-chloro-2-(difluoromethoxy)phenyl]pyrazol-4-yl]pyrazolo[1,5-a]pyrimidine-3-carboxamide], for which the Ki (usually a dissociation constant, usually derived from enzyme kinetics or from competition with a known ligand) in assay [1] was found to be 0.82 nM; in assay [3], 0.84 nM. The EC50 in assay [2] (Homo sapiens, TF-1, TF-1 cells) is 3.5 nM; in assay [4], 0.177 µM.

Take `O=C(Nc1cn(CC(=O)N2C[C@H]3CN(CC4CCC(F)(F)CC4)C[C@H]3C2)nc1-c1cc(Cl)ccc1OC(F)F)c1cnn2cccnc12` [Example 33, N-[1-[2-[(3aR,6aS)-2-[(4,4-difluoro-cyclohexyl)methyl]-1,3,3a,4,6,6a-hexahydropyrrolo[3,4-c]pyrrol-5-yl]-2-oxo-ethyl]-3-[5-chloro-2-(difluoromethoxy)phenyl]pyrazol-4-yl]pyrazolo[1,5-a]pyrimidine-3-carboxamide]: the Ki worked out at 0.66 nM in assay [1] and 0.49 nM in assay [3]. Also, the EC50 stood at 6.2 nM in assay [2] (Homo sapiens, TF-1, TF-1 cells) and 0.0485 µM in assay [4].

As to `O=C(Nc1cn(CC(=O)N2C[C@H]3CN(CC4CCC4)C[C@H]3C2)nc1-c1cc(Cl)ccc1OC(F)F)c1cnn2cccnc12` [Example 40, N-[1-[2-[(3aR,6aS)-2-(cyclobutylmethyl)-1,3,3a,4,6,6a-hexahydropyrrolo[3,4-c]pyrrol-5-yl]-2-oxo-ethyl]-3-[5-chloro-2-(difluoromethoxy)phenyl]pyrazol-4-yl]pyrazolo[1,5-a]pyrimidine-3-carboxamide], the Ki was determined as 0.65 nM in assay [1] and 0.61 nM in assay [3]. The EC50 came to 3.8 nM in assay [2] (Homo sapiens, TF-1, TF-1 cells) and 0.128 µM in assay [4].

Consider `CN1CC[C@@H]2[C@@H](CCN2C(=O)Cn2cc(NC(=O)c3cnn4cccnc34)c(-c3cc(Cl)ccc3OC(F)F)n2)C1` [Example 45, N-[1-[2-[(3aS,7aR)-5-methyl-3,3a,4,6,7,7a-hexahydro-2H-pyrrolo[3,2-c]pyridin-1-yl]-2-oxo-ethyl]-3-[5-chloro-2-(difluoromethoxy)phenyl]pyrazol-4-yl]pyrazolo[1,5-a]pyrimidine-3-carboxamide], for which the Ki in assay [1] amounted to 0.74 nM; in assay [3], 1.78 nM. The EC50 came out at 7.1 nM in assay [2] (TF-1 cells) and 0.0245 µM in assay [4].

Consider `CN1CC[C@H]2[C@H](CCN2C(=O)Cn2cc(NC(=O)c3cnn4cccnc34)c(-c3cc(Cl)ccc3OC(F)F)n2)C1` [Example 48, N-[1-[2-[(3aR,7aS)-5-methyl-3,3a,4,6,7,7a-hexahydro-2H-pyrrolo[3,2-c]pyridin-1-yl]-2-oxo-ethyl]-3-[5-chloro-2-(difluoromethoxy)phenyl]pyrazol-4-yl]pyrazolo[1,5-a]pyrimidine-3-carboxamide], for which the Ki worked out at 0.94 nM in assay [1] and 1.85 nM in assay [3]. For the same molecule, the EC50 in assay [2] (Homo sapiens, TF-1, TF-1 cells) is 13.7 nM; in assay [4], 0.0594 µM.

As for `O=C(Nc1cn(CC(=O)N2C[C@H]3CN(CC4CCCCC4)C[C@H]3C2)nc1-c1cc(Cl)ccc1OC(F)F)c1cnn2cccnc12` [Example 52, N-[1-[2-[(3aR,6aS)-2-(cyclohexylmethyl)-1,3,3a,4,6,6a-hexahydropyrrolo[3,4-c]pyrrol-5-yl]-2-oxo-ethyl]-3-[5-chloro-2-(difluoromethoxy)phenyl]pyrazol-4-yl]pyrazolo[1,5-a]pyrimidine-3-carboxamide], the Ki was 0.65 nM in assay [1] and 0.62 nM in assay [3]. For the same molecule, the EC50 came out at 5.4 nM in assay [2] (Homo sapiens, TF-1, TF-1 cells) and 0.0388 µM in assay [4].

Turning to `CN1CC[C@@H]2[C@H](CCN2C(=O)Cn2cc(NC(=O)c3cnn4cccnc34)c(-c3cc(Cl)ccc3OC(F)F)n2)C1` [Example 61, N-[1-[2-[(3aR,7aR)-5-methyl-3,3a,4,6,7,7a-hexahydro-2H-pyrrolo[3,2-c]pyridin-1-yl]-2-oxo-ethyl]-3-[5-chloro-2-(difluoromethoxy)phenyl]pyrazol-4-yl]pyrazolo[1,5-a]pyrimidine-3-carboxamide], the Ki came to 0.23 nM in assay [1] and 0.68 nM in assay [3]. Moreover, the EC50 was 27.5 nM in assay [2] (Homo sapiens, TF-1, TF-1 cells) and 0.0324 µM in assay [4].

Turning to `CN1CC[C@H]2[C@@H](CCN2C(=O)Cn2cc(NC(=O)c3cnn4cccnc34)c(-c3cc(Cl)ccc3OC(F)F)n2)C1` [Example 62, N-[1-[2-[(3aS,7aS)-5-methyl-3,3a,4,6,7,7a-hexahydro-2H-pyrrolo[3,2-c]pyridin-1-yl]-2-oxo-ethyl]-3-[5-chloro-2-(difluoromethoxy)phenyl]pyrazol-4-yl]pyrazolo[1,5-a]pyrimidine-3-carboxamide], the Ki turned out to be 2.07 nM in assay [1] and 2.68 nM in assay [3]. Also, the EC50 was 55.8 nM in assay [2] (Homo sapiens, TF-1, TF-1 cells) and 0.0892 µM in assay [4].

As to `CNC1CCN(C(=O)Cn2cc(NC(=O)c3cnn4cccnc34)c(-c3cc(Cl)ccc3OC(F)F)n2)CC1` [Example 83, N-[3-[5-chloro-2-(difluoromethoxy)phenyl]-1-[2-[4-(methylamino)-1-piperidyl]-2-oxo-ethyl]pyrazol-4-yl]pyrazolo[1,5-a]pyrimidine-3-carboxamide], the Ki is 1.07 nM in assay [1] and 1.59 nM in assay [3]. Further, the EC50 is 42.3 nM in assay [2] (Homo sapiens, TF-1, TF-1 cells) and 0.143 µM in assay [4].

As for `N#CCCNC1CCN(C(=O)Cn2cc(NC(=O)c3cnn4cccnc34)c(-c3cc(Cl)ccc3OC(F)F)n2)CC1` [Example 87, N-[3-[5-chloro-2-(difluoromethoxy)phenyl]-1-[2-[4-(2-cyanoethylamino)-1-piperidyl]-2-oxo-ethyl]pyrazol-4-yl]pyrazolo[1,5-a]pyrimidine-3-carboxamide], the values for the Ki in assay [1] and in assay [3] were 0.4 nM and 0.73 nM, respectively. For the same molecule, the EC50 is 15.4 nM in assay [2] (Homo sapiens, TF-1, TF-1 cells) and 0.014 µM in assay [4].

With `CN(CCc1ccc(Cl)cc1)C1CCN(C(=O)Cn2cc(NC(=O)c3cnn4cccnc34)c(-c3cc(Cl)ccc3OC(F)F)n2)CC1` [Example 94, N-[3-[5-chloro-2-(difluoromethoxy)phenyl]-1-[2-[4-[2-(4-chlorophenyl)ethyl-methyl-amino]-1-piperidyl]-2-oxo-ethyl]pyrazol-4-yl]pyrazolo[1,5-a]pyrimidine-3-carboxamide], the Ki in assay [1] is 1.2 nM; in assay [3], 2.07 nM. The EC50 in assay [2] (Homo sapiens, TF-1, TF-1 cells) came to 42.4 nM; in assay [4], 0.0931 µM.

Consider `Cc1ccc(OCCN(C)C2CCN(C(=O)Cn3cc(NC(=O)c4cnn5cccnc45)c(-c4cc(Cl)ccc4OC(F)F)n3)CC2)cc1` [Example 110, N-[3-[5-chloro-2-(difluoromethoxy)phenyl]-1-[2-[4-[methyl-[2-(4-methylphenoxy)ethyl]amino]-1-piperidyl]-2-oxo-ethyl]pyrazol-4-yl]pyrazolo[1,5-a]pyrimidine-3-carboxamide], for which the figures for the Ki in assay [1] and in assay [3] were 1.04 nM and 2.03 nM, respectively. Further, the EC50 amounted to 8.9 nM in assay [2] (Homo sapiens, TF-1, TF-1 cells) and 0.0875 µM in assay [4].

In the case of `CC1(CN(CCC(F)(F)F)C2CCN(C(=O)Cn3cc(NC(=O)c4cnn5cccnc45)c(-c4cc(Cl)ccc4OC(F)F)n3)CC2)COC1` [Example 117, N-[3-[5-chloro-2-(difluoromethoxy)phenyl]-1-[2-[4-[(3-methyloxetan-3-yl)methyl-(3,3,3-trifluoropropyl)amino]-1-piperidyl]-2-oxo-ethyl]pyrazol-4-yl]pyrazolo[1,5-a]pyrimidine-3-carboxamide], the Ki in assay [1] came to 0.51 nM; in assay [3], 1.13 nM. The EC50 is 8.6 nM in assay [2] (Homo sapiens, TF-1, TF-1 cells) and 0.0546 µM in assay [4].

Regarding `O=C(Nc1cn(CC(=O)N2CCC(N(CCC(F)(F)F)Cc3ccccc3)CC2)nc1-c1cc(Cl)ccc1OC(F)F)c1cnn2cccnc12` [Example 118, N-[1-[2-[4-[benzyl(3,3,3-trifluoropropyl)amino]-1-piperidyl]-2-oxo-ethyl]-3-[5-chloro-2-(difluoromethoxy)phenyl]pyrazol-4-yl]pyrazolo[1,5-a]pyrimidine-3-carboxamide], the Ki in assay [1] stood at 2.57 nM; in assay [3], 4.45 nM. Also, the EC50 in assay [2] (Homo sapiens, TF-1, TF-1 cells) was determined as 100 nM; in assay [4] it was 0.303 µM.

`CN(CCCc1ccccc1)C1CCN(C(=O)Cn2cc(NC(=O)c3cnn4cccnc34)c(-c3cc(Cl)ccc3OC(F)F)n2)CC1` [Example 123, N-[3-[5-chloro-2-(difluoromethoxy)phenyl]-1-[2-[4-[methyl(3-phenylpropyl)amino]-1-piperidyl]-2-oxo-ethyl]pyrazol-4-yl]pyrazolo[1,5-a]pyrimidine-3-carboxamide]: the Ki in assay [1] came out at 2.23 nM; in assay [3] it was 1.63 nM. Besides, the EC50 in assay [2] (Homo sapiens, TF-1, TF-1 cells) was 7.6 nM; in assay [4], 0.0487 µM.

Turning to `O=C(Nc1cn(CC(=O)N2CCC(NC(c3ccccc3)C(F)(F)F)CC2)nc1-c1cc(Cl)ccc1OC(F)F)c1cnn2cccnc12` (centres unmarked) [Example 132, N-[3-[5-chloro-2-(difluoromethoxy)phenyl]-1-[2-oxo-2-[4-[(2,2,2-trifluoro-1-phenyl-ethyl)amino]-1-piperidyl]ethyl]pyrazol-4-yl]pyrazolo[1,5-a]pyrimidine-3-carboxamide], the Ki is 0.57 nM in assay [1] and 1.27 nM in assay [3]. For the same molecule, the EC50 in assay [2] (Homo sapiens, TF-1, TF-1 cells) is 3.1 nM; in assay [4] it was 0.0973 µM.

For `CC(=O)N1CCC(N2CCC(n3cc(NC(=O)c4c(N)nn5cccnc45)c(-c4cc(Cl)ccc4OC(F)F)n3)CC2)CC1` [Example 144, N-[1-[1-(1-acetyl-4-piperidyl)-4-piperidyl]-3-[5-chloro-2-(difluoromethoxy)phenyl]pyrazol-4-yl]-2-amino-pyrazolo[1,5-a]pyrimidine-3-carboxamide], the Ki in assay [1] was 0.54 nM; in assay [3], 0.17 nM. Further, the EC50 is 12.8 nM in assay [2] (Homo sapiens, TF-1, TF-1 cells) and 0.0213 µM in assay [4].

Values taken from patent US9346815B2, “5-chloro-2-difluoromethoxyphenyl pyrazolopyrimidine compounds, compositions and methods of use thereof” (Genentech, Inc., priority 2014, dated 2016).
